Test results from US10882882B2, “Post fermented tea-derived kaempferol-based compound” (AMOREPACIFIC CORPORATION, priority 2016, dated 2021).

Experiments:
beta amyloid (Aβ1-42) = target: T1, beta amyloid (Aβ1-42) (Homo sapiens, UniProt P05067); assay: Inhibition of beta amyloid aggregation, fluorescence analysis (ThioflavinT assay); assay type: biochemical
T1 construct: beta amyloid (Aβ1-42, AnaSpec Inc, USA); purchased AnaSpec Inc, USA
Method: The effect of kaempferol3-O-[2-O″-(E)-p-coumaroyl][beta-D-glucopyranosyl-(1→3)-O-alpha-L-rhamnopyranosyl-(1→6)-O-beta-D-glucopyranoside] on inhibition of beta amyloid aggregation was confirmed by the fluorescence analysis (ThioflavinT assay). Specifically, beta amyloid (Aβ1-42, AnaSpec Inc, USA) was obtained and used at a concentration of 0.1 mg/ml and stored at −80° C. before use. Morin (20 μM), phenol red (20 μM), and kaempferol3-O-[2-O″-(E)-p-coumaroyl][beta-D-glucopyranosyl-(1→3)-O-alpha-L-rhamnopyranosyl-(1→6)-O-beta-D-glucopyranoside] (1 mg/ml) were respectively diluted with DMSO so as to be adjusted to the concentrations. In order to specify the degree of inhibition of Aβ1-42 aggregation, each of the compounds prepared at the above concentrations was diluted with 50 μL of 0.01 M sodium phosphate buffer solution to have a concentration of 10 μM, then 40 μL of 0.1 mg/ml of Aβ1-42 was added thereto, and then 10 μl of 2 mM thioflavinT was added thereto, and fluorescence was measured using a fluorescence spectrometer (RF-5300PC, SHIMADZU CORPORATION, Japan) at 37° C. for 150 minutes at intervals of 5 minutes. In the above table, “RFU” denotes the relative fluorescence unit, and “Increased RFU” denotes the amount of aggregated beta amyloid, and “Increased RFU (% of Pos.Cont.)” denotes the percentage value of the amount of aggregated beta amyloid with respect to that of the positive control group. “Novel substance 33” denotes kaempferol3-O-[2-O″-(E)-p-coumaroyl][beta-D-glucopyranosyl-(1→3)-O-alpha-L-rhamnopyranosyl-(1→6)-O-beta-D-glucopyranoside].

healthy adult subjects = assay: Human repeated insult patch test (HRIPT), cumulative skin irritation; assay type: in vivo; conditions: for Number of subjects showed ± reactivity, 1st time / Number of subjects showed + reactivity, 1st time / Number of subjects showed ++ reactivity, 1st time: 1st patch; for Number of subjects showed ± reactivity, 1st time / Number of subjects showed ± reactivity, 2nd time / Number of subjects showed ± reactivity, 3rd time / Number of subjects showed ± reactivity, 4th time / Number of subjects showed ± reactivity, 5th time / Number of subjects showed ± reactivity, 6th time / Number of subjects showed ± reactivity, 7th time / Number of subjects showed ± reactivity, 8th time / Number of subjects showed ± reactivity, 9th time: 1st of 3 lines (±); for Number of subjects showed + reactivity, 1st time / Number of subjects showed + reactivity, 2nd time / Number of subjects showed + reactivity, 3rd time / Number of subjects showed + reactivity, 4th time / Number of subjects showed + reactivity, 5th time / Number of subjects showed + reactivity, 6th time / Number of subjects showed + reactivity, 7th time / Number of subjects showed + reactivity, 8th time / Number of subjects showed + reactivity, 9th time: 2nd of 3 lines (+); for Number of subjects showed ++ reactivity, 1st time / Number of subjects showed ++ reactivity, 2nd time / Number of subjects showed ++ reactivity, 3rd time / Number of subjects showed ++ reactivity, 4th time / Number of subjects showed ++ reactivity, 5th time / Number of subjects showed ++ reactivity, 6th time / Number of subjects showed ++ reactivity, 7th time / Number of subjects showed ++ reactivity, 8th time / Number of subjects showed ++ reactivity, 9th time: 3rd of 3 lines (++); for Number of subjects showed ± reactivity, 2nd time / Number of subjects showed + reactivity, 2nd time / Number of subjects showed ++ reactivity, 2nd time: 2nd patch; for Number of subjects showed ± reactivity, 3rd time / Number of subjects showed + reactivity, 3rd time / Number of subjects showed ++ reactivity, 3rd time: 3rd patch; for Number of subjects showed ± reactivity, 4th time / Number of subjects showed + reactivity, 4th time / Number of subjects showed ++ reactivity, 4th time: 4th patch; for Number of subjects showed ± reactivity, 5th time / Number of subjects showed + reactivity, 5th time / Number of subjects showed ++ reactivity, 5th time: 5th patch; for Number of subjects showed ± reactivity, 6th time / Number of subjects showed + reactivity, 6th time / Number of subjects showed ++ reactivity, 6th time: 6th patch; for Number of subjects showed ± reactivity, 7th time / Number of subjects showed + reactivity, 7th time / Number of subjects showed ++ reactivity, 7th time: 7th patch; for Number of subjects showed ± reactivity, 8th time / Number of subjects showed + reactivity, 8th time / Number of subjects showed ++ reactivity, 8th time: 8th patch; for Average reactivity: 9 patches over three weeks, safe when less than 3; for Number of subjects showed ± reactivity, 9th time / Number of subjects showed + reactivity, 9th time / Number of subjects showed ++ reactivity, 9th time: 9th patch
Method: Human repeated insult patch tests (HRIPT) were conducted to determine the cumulative skin irritation by kaempferol3-O-[2-O″-(E)-p-coumaroyl][beta-D-glucopyranosyl-(1→3)-O-alpha-L-rhamnopyranosyl-(1→6)-O-beta-D-glucopyranoside] and to calculate the concentration range in which kaempferol3-O-[2-O″-(E)-p-coumaroyl][beta-D-glucopyranosyl-(1→3)-O-alpha-L-rhamnopyranosyl-(1→6)-O-beta-D-glucopyranoside] can be used on the skin.
Specifically, 15 healthy adult subjects were randomly selected, the test compositions (compositions for skin containing an emulsifier, a stabilizer, purified water, and the like in addition to the compound) containing the compound at 0.5 wt %, 1 wt %, and 3 wt % were dropped by 20 μl per chamber (IQ chamber, Epitest Ltd, Finland), and the patch was applied to the right side of the upper back of the subject and then replaced with new one after 24 hours. The skin reaction was examined before and after the patch test while the patch test was conducted three times a week and thus nine times for three weeks in total in this manner, the skin reaction was observed until the 48th hour after removal of the final patch, and the average reactivity was determined.
The skin reaction was judged according to the criteria of the International Contact Dermatitis Research Group (ICDRG). In the above table, “Novel substance 33” denotes kaempferol3-O-[2-O″-(E)-p-coumaroyl][beta-D-glucopyranosyl-(1→3)-O-alpha-L-rhamnopyranosyl-(1→6)-O-beta-D-glucopyranoside].

T1 sequence (P05067 672-713 limits assumed): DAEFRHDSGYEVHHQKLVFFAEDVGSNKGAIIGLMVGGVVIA

## CC1OC(OCC2OC(Oc3c(-c4ccc(O)cc4)oc4cc(O)cc(O)c4c3=O)C(OC(=O)/C=C/c3ccc(O)cc3)C(O)C2O)C(O)C(OC2OC(CO)C(O)C(O)C2O)C1O [Novel substance 33, kaempferol3-O-[2-O″-(E)-p-coumaroyl][beta-D-glucopyranosyl-(1→3)-O-alpha-L-rhamnopyranosyl-(1→6)-O-beta-D-glucopyranoside]]
Beta amyloid (Aβ1-42); compound 10 μM, Aβ1-42 0.1 mg/ml, 37° C., 150 minutes, Pos. Cont. (beta amyloid only) = 100
  Increased RFU (% of Pos. Cont.): 77.0%
Beta amyloid (Aβ1-42); compound 10 μM, Aβ1-42 0.1 mg/ml, thioflavinT, 37° C., 150 minutes
  Increased RFU (amount of aggregated beta amyloid): 11235 RFU
Beta amyloid (Aβ1-42); positive control (only beta amyloid, no compound) taken as 100%
  inhibition of beta amyloid aggregation as compared with the positive control group: 23.0%
Healthy adult subjects; 0.5 wt %
  Number of subjects showed ± reactivity, 1st time: 0 persons
  Number of subjects showed + reactivity, 1st time: 0 persons
  Number of subjects showed ++ reactivity, 1st time: 0 persons
  Number of subjects showed ± reactivity, 2nd time: 0 persons
  Number of subjects showed + reactivity, 2nd time: 0 persons
  Number of subjects showed ++ reactivity, 2nd time: 0 persons
  Number of subjects showed ± reactivity, 3rd time: 0 persons
  Number of subjects showed + reactivity, 3rd time: 0 persons
  Number of subjects showed ++ reactivity, 3rd time: 0 persons
  Number of subjects showed ± reactivity, 4th time: 0 persons
  Number of subjects showed + reactivity, 4th time: 0 persons
  Number of subjects showed ++ reactivity, 4th time: 0 persons
  Number of subjects showed ± reactivity, 5th time: 0 persons
  Number of subjects showed + reactivity, 5th time: 0 persons
  Number of subjects showed ++ reactivity, 5th time: 0 persons
  Number of subjects showed ± reactivity, 6th time: 0 persons
  Number of subjects showed + reactivity, 6th time: 0 persons
  Number of subjects showed ++ reactivity, 6th time: 0 persons
  Number of subjects showed ± reactivity, 7th time: 0 persons
  Number of subjects showed + reactivity, 7th time: 0 persons
  Number of subjects showed ++ reactivity, 7th time: 0 persons
  Number of subjects showed ± reactivity, 8th time: 0 persons
  Number of subjects showed + reactivity, 8th time: 0 persons
  Number of subjects showed ++ reactivity, 8th time: 0 persons
  Average reactivity: 0
  Number of subjects showed ± reactivity, 9th time: 0 persons
  Number of subjects showed + reactivity, 9th time: 0 persons
  Number of subjects showed ++ reactivity, 9th time: 0 persons
Healthy adult subjects; 1 wt %
  Number of subjects showed ± reactivity, 1st time: 0 persons
  Number of subjects showed + reactivity, 1st time: 0 persons
  Number of subjects showed ++ reactivity, 1st time: 0 persons
  Number of subjects showed ± reactivity, 2nd time: 0 persons
  Number of subjects showed + reactivity, 2nd time: 0 persons
  Number of subjects showed ++ reactivity, 2nd time: 0 persons
  Number of subjects showed ± reactivity, 3rd time: 0 persons
  Number of subjects showed + reactivity, 3rd time: 0 persons
  Number of subjects showed ++ reactivity, 3rd time: 0 persons
  Number of subjects showed ± reactivity, 4th time: 0 persons
  Number of subjects showed + reactivity, 4th time: 0 persons
  Number of subjects showed ++ reactivity, 4th time: 0 persons
  Number of subjects showed ± reactivity, 5th time: 0 persons
  Number of subjects showed + reactivity, 5th time: 0 persons
  Number of subjects showed ++ reactivity, 5th time: 0 persons
  Number of subjects showed ± reactivity, 6th time: 0 persons
  Number of subjects showed + reactivity, 6th time: 0 persons
  Number of subjects showed ++ reactivity, 6th time: 0 persons
  Number of subjects showed ± reactivity, 7th time: 0 persons
  Number of subjects showed + reactivity, 7th time: 0 persons
  Number of subjects showed ++ reactivity, 7th time: 0 persons
  Number of subjects showed ± reactivity, 8th time: 0 persons
  Number of subjects showed + reactivity, 8th time: 0 persons
  Number of subjects showed ++ reactivity, 8th time: 0 persons
  Average reactivity: 0
  Number of subjects showed ± reactivity, 9th time: 0 persons
  Number of subjects showed + reactivity, 9th time: 0 persons
  Number of subjects showed ++ reactivity, 9th time: 0 persons
Healthy adult subjects; 3 wt %
  Number of subjects showed ± reactivity, 1st time: 0 persons
  Number of subjects showed + reactivity, 1st time: 0 persons
  Number of subjects showed ++ reactivity, 1st time: 0 persons
  Number of subjects showed ± reactivity, 2nd time: 0 persons
  Number of subjects showed + reactivity, 2nd time: 0 persons
  Number of subjects showed ++ reactivity, 2nd time: 0 persons
  Number of subjects showed ± reactivity, 3rd time: 0 persons
  Number of subjects showed + reactivity, 3rd time: 0 persons
  Number of subjects showed ++ reactivity, 3rd time: 0 persons
  Number of subjects showed ± reactivity, 4th time: 0 persons
  Number of subjects showed + reactivity, 4th time: 0 persons
  Number of subjects showed ++ reactivity, 4th time: 0 persons
  Number of subjects showed ± reactivity, 5th time: 0 persons
  Number of subjects showed + reactivity, 5th time: 0 persons
  Number of subjects showed ++ reactivity, 5th time: 0 persons
  Number of subjects showed ± reactivity, 6th time: 0 persons
  Number of subjects showed + reactivity, 6th time: 0 persons
  Number of subjects showed ++ reactivity, 6th time: 0 persons
  Number of subjects showed ± reactivity, 7th time: 0 persons
  Number of subjects showed + reactivity, 7th time: 0 persons
  Number of subjects showed ++ reactivity, 7th time: 0 persons
  Number of subjects showed ± reactivity, 8th time: 0 persons
  Number of subjects showed + reactivity, 8th time: 0 persons
  Number of subjects showed ++ reactivity, 8th time: 0 persons
  Average reactivity: 0
  Number of subjects showed ± reactivity, 9th time: 0 persons
  Number of subjects showed + reactivity, 9th time: 0 persons
  Number of subjects showed ++ reactivity, 9th time: 0 persons
Healthy adult subjects; HRIPT, 0.5 to 3 wt %
  cumulative skin irritation: without cumulative skin irritation
